This is an account of results in patent US20070111258A1, “Compositions and methods for modulating the acute phase response” (priority 2005, published 2007).

One experiment concerns CREBH. Put plainly: Confocal immunofluorescence of CREBH translocation in COS7 cells. The class given is cell-based. To be noted: Tm 5 μg/ml 4 hours. The method, then: FIG. 3 depicts the effects of ER stress on CREBH: proteolytic cleavage of CREBH to release its N-terminal fragment that translocates into the nucleus. (A) Illustration of transmembrane domains and lumenal domains of SREBP, ATF6, Luman and CREBH in human (hs), mouse (mm). The conserved residues for S1P and S2P recognition are highlighted. (B) Cleavage of CREBH in H2.35 cells under different stimuli. H2.35 cells stably expressing flag-tagged human CREBH were treated with 0.5 μg/ml BFA, 20 ng/ml TNFα, 40 ng/ml IL6, 5 mM DTT, 0.5 μM Tg or 5 μg/ml Tm for 8 hours. Untransfected H2.35 cells (lane 1) and the H2.35 cells that stably express human CREBH (lane 2) were cultured under normal conditions as control. Total cell lysates were collected for Western blot analysis by using an anti-flag monoclonal antibody (upper panel). Levels of α-actin were determined for control of protein loading (lower panel). (C) Cleavage of CREBH in H2.35 cells under Tm treatment for various time periods. The H2.35 cells stably expressing flag-tagged CREBH were cultured in the absence or presence of Tm (5 μg/ml) for 4, 8 or 12 hours. […]
Immunofluorescence staining was performed as previously described (Paterson et al., 1995). […] The fluorescence images were examined by a confocal laser scanning fluorescence microscopy using an LSM510 (Carl Zeiss, Thornwood, N.Y.).

In experiment [1] the test system is CREBH and ATF6 heterodimers. Put plainly: IP-Western blot of CREBH and ATF6 interaction in 293T cells. Conditions: 293T cells expressing flag-tagged CREBH; 8 hours after Tm treatment. The class given is cell-based, human. The method, then: FIG. 11 depicts the synergistic interaction of CREBH with ATF6 to activate transcription of the major APR genes. (A) Luciferase reporter analysis of trans-activation effects of CREBH on promoters of the murine SAP gene and the human CRP gene in H2.35 cells. H2.35 cells in a 35 mm collagen-coated plate were co-transfected with a control vector or a CREBH expression vector (0.25 μg), the luciferase reporter (0.6 μg) and pcDNA3-LacZ (0.25 μg), and were then cultured in the absence or presence of Tm (5 μg/ml) for 10 hours. (B) CREBH-DN efficiently suppresses CREBH trans-activation on the murine SAP and the human CRP promoters. […] (C) Interaction between ATF6 and CREBH was determined by IP-Western blot analysis. […] Expression levels of CREBH in the transfected cells were determined by Western blot analysis of total cell lysates using the anti-flag antibody (lower panel). […]
For analysis of expression and cleavage of CREBH protein, total cell lysates were prepared from H2.35 cells or COS7 cells using Nonidet P-40 lysis buffer (1% NP-40, 50 mM Tris-HCl at pH 7.5, 150 mM NaCl, 0.05% SDS) supplemented with protease inhibitors (Complete Mini from Roche Applied Science), 0.1 mM sodium vanadate, and 1 mM sodium fluoride. […] The total cell lysate, membrane and nuclear fractions were subjected to SDS-PAGE and then analyzed by Western blot using anti-flag monoclonal antibody or other antibodies. […]

For tunicamycin [Tm], the “nuclear accumulation of immunoreactive CREBH protein” value in the experiment with CREBH is “a significant portion of the immunoreactive CREBH protein accumulated in the nucleus”. In addition, the “interaction between CREBH and ATF6” value in experiment [1] is “significantly increased”.
